Test results published in ChEMBL document CHEMBL1157742, “Oxepinochromenones, furochromenone, and their putative precursors from the endolichenic fungus Coniochaeta sp” (J Nat Prod, 2010).

How the values were obtained:
Format in all cases: functional, cell-based
[1] = system: HeLa; experiment: Cytotoxicity against human HeLa cells after 48 hrs by MTT assay
[2] = system: HepG2; experiment: Cytotoxicity against human HepG2 cells after 48 hrs by MTT assay; details: HepG2, 48 h
[3] = system: A549; experiment: Cytotoxicity against human A549 cells after 48 hrs by MTT assay; details: A549, 48 h
[4] = system: MDA-MB-231; experiment: Cytotoxicity against human MDA-MB-231 cells after 48 hrs by MTT assay; details: MDA-MB-231, 48 h

Row | Structure (SMILES) | IC50 [1] [µM] | IC50 [2] [µM] | IC50 [3] [µM] | IC50 [4] [µM]
1 | COC(=O)[C@@]1(O)c2c(oc3cc(C)cc(O)c3c2=O)O[C@@H]1CCO [CONIOFUROL A] | > 120 | > 120 | > 120 | > 120
2 | COC(=O)[C@@H]1c2c(oc3cc(C)cc(O)c3c2=O)OC=C[C@@H]1O [CONIOXEPINOL A] | 104 | > 120 | > 120 | > 120
3 | COC(=O)[C@@H]1c2c(oc3cc(CO)cc(O)c3c2=O)OC=C[C@@H]1O [CONIOXEPINOL B] | 36.2 | > 120 | > 120 | > 120
4 | COC(=O)[C@@]1(O)c2c(oc3cc(C)cc(O)c3c2=O)OC=C[C@@H]1O [CONIOXEPINOL C] | > 120 | > 120 | 83.6 | 112
5 | COC(=O)[C@]12Oc3cc(C)cc(O)c3C(=O)C1=C(O)OC=C[C@H]2O [CONIOXEPINOL D] | > 120 | > 120 | 40.9 | 41.4
6 | O=c1[nH]cc(F)c(=O)[nH]1 [FLUOROURACIL] | 10 |  |  | 
